From patent US20250179059A1 (The Regents of the University of California, priority 2021, published 2025)

Tests used:
[1] = biological target: T1, human BRD4 bromodomain II (Homo sapiens, UniProt O60885); experiment: Bromodomain binding assay (AlphaScreen), BRD4 BDII; details: BRD4 BDII AlphaScreen assay; read-out: BRD4 BD2 IC50
T1 construct: human BRD4 bromodomain II [based on Genbank NM_058243, residues 349-460]; host or cells: E. coli
Method in brief: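 AlphaScreen competition with biotinylated H4 peptide (aa 1-21, K5/K8/K12/K16Ac), using nickel-chelate acceptor and streptavidin donor beads. Targets were His6-BRD4 BDI (44-170) or BDII (349-460), with a 30 min compound preincubation over a 10-point 3-fold series. IC50 was fitted from percentage peptide binding.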

[2] = tested on: human SKM-1 acute myeloid leukemia cells; experiment: SKM-1 antiproliferation cell-based assay (ATPlite)
Method in brief: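 Log-phase cells in RPMI 1640/15% FBS were seeded at 34722 cells/mL and exposed for 4 days to nine-concentration DMSO serial dilutions in triplicate. Viability was read as ATP luminescence (ATPlite 1step), and IC50 values came from variable-slope non-linear regression.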

[3] = Homo sapiens, SKM-1, SKM-1 antiproliferation assay

SMILES | IC50 [1] | GI50 [2, 3] | GI50 ([2]; SKM-1 antiproliferation assay)
CC(C)N1CCC12CCN(c1cc(-c3cc(F)cc(-c4ccc(-n5ccn(C)c5=O)c(Cl)c4)c3O)cnc1N(C)C)C2 (stereo not drawn) [Example 987, 1-(3-chloro-3′-(6-(dimethylamino)-5-(1-isopropyl-1,6-diazaspiro[3.4]octan-6-yl)pyridin-3-yl)-5′-fluoro-2′-hydroxy-[1,1′-biphenyl]-4-yl)-3-methyl-1H-imidazol-2(3H)-one] | 1 to 10 nM | 0.3 to 30 nM | 
CN(C)c1ncc(-c2nccc(-c3ccc(-n4ccn(C)c4=O)c(Cl)c3)c2O)cc1N1CCN(C(C)(C)C)CC1 [Example 988, 1-(4-(5′-(4-(tert-butyl)piperazin-1-yl)-6′-(dimethylamino)-3-hydroxy-[2,3′-bipyridin]-4-yl)-2-chlorophenyl)-3-methyl-1H-imidazol-2(3H)-one] | 1 to 10 nM | 0.3 to 30 nM | 
Cc1cc(-c2ccc(-n3ccn(C)c3=O)c(Cl)c2)c(O)c(-c2cc(N3CCN(C(C)(C)C)CC3)c3nccn3c2)n1 [Example 989, 1-(4-(2-(8-(4-(tert-butyl)piperazin-1-yl)imidazo[1,2-a]pyridin-6-yl)-3-hydroxy-6-methylpyridin-4-yl)-2-chlorophenyl)-3-methyl-1H-imidazol-2(3H)-one] | 1 to 10 nM |  | 0.3 to 30 nM
Cc1cc(-c2ccc(-n3ccn(C)c3=O)c(Cl)c2)c(O)c(-c2cnc(N(C)C)c(N3CCC4(CCN4C(C)C)C3)c2)n1 (stereo not drawn) [Example 990, 1-(2-chloro-4-(6′-(dimethylamino)-3-hydroxy-5′-(1-isopropyl-1,6-diazaspiro[3.4]octan-6-yl)-6-methyl-[2,3′-bipyridin]-4-yl)phenyl)-3-methyl-1H-imidazol-2(3H)-one] | 1 to 10 nM | 0.3 to 30 nM | 
[2H]C([2H])([2H])n1ccn(-c2ccc(-c3cc(C)nc(-c4cccc(N5CCN(C(C)(C)C)CC5)c4)c3O)cc2Cl)c1=O [Example 991, 1-(4-(2-(3-(4-(tert-Butyl)piperazin-1-yl)phenyl)-3-hydroxy-6-methylpyridin-4-yl)-2-chlorophenyl)-3-(methyl-d3)-1,3-dihydro-2H-imidazol-2-one] | 1 to 10 nM | 0.3 to 30 nM | 
Cc1cc(-c2ccc(-n3ccn(C)c3=O)c(Cl)c2)c(N)c(-c2cccc(N3CCN(C(C)(C)C)CC3)c2)n1 [Example 992, 1-(4-(3-Amino-2-(3-(4-(tert-butyl)piperazin-1-yl)phenyl)-6-methylpyridin-4-yl)-2-chlorophenyl)-3-methyl-1H-imidazol-2(3H)-one] | 1 to 10 nM | 0.3 to 30 nM | 
Cc1ncc(-c2nccc(-c3ccc(-n4ccn(C)c4=O)c(Cl)c3)c2O)cc1N1CCN(C(C)(C)C)CC1 [Example 993, 1-(4-(5′-(4-(tert-Butyl)piperazin-1-yl)-3-hydroxy-6′-methyl-[2,3′-bipyridin]-4-yl)-2-chlorophenyl)-3-methyl-1H-imidazol-2(3H)-one] | 10 to 100 nM | 0.3 to 30 nM | 
Cc1cc(-c2ccc(-n3ccn(C)c3=O)c(Cl)c2)c(O)c(-c2cnc(N(C)C)c(N3CCC4(CCCN4C(C)C)C3)c2)n1 (stereo not drawn) [Example 994, 1-(2-Chloro-4-(6′-(dimethylamino)-3-hydroxy-5′-(1-isopropyl-1,7-diazaspiro[4.4]nonan-7-yl)-6-methyl-[2,3′-bipyridin]-4-yl)phenyl)-3-methyl-1H-imidazol-2(3H)-one] | 1 to 10 nM | 0.3 to 30 nM | 
Cc1cc(-c2ccc(-n3ccn(C)c3=O)c(Cl)c2)c(O)c(-c2ccnc(N3CC[C@](C)(O)C3)c2)n1 [Example 995, (S)-1-(2-chloro-4-(3-hydroxy-2′-(3-hydroxy-3-methylpyrrolidin-1-yl)-6-methyl-[2,4′-bipyridin]-4-yl)phenyl)-3-methyl-1H-imidazol-2(3H)-one] | 1 to 10 nM | 0.3 to 30 nM | 
Cc1cc(-c2ccc(-n3ccn(C)c3=O)c(Cl)c2)c(O)c(-c2ccnc(N3CC[C@@](C)(O)C3)c2)n1 [Example 996, (R)-1-(2-chloro-4-(3-hydroxy-2′-(3-hydroxy-3-methylpyrrolidin-1-yl)-6-methyl-[2,4′-bipyridin]-4-yl)phenyl)-3-methyl-1H-imidazol-2(3H)-one] | 1 to 10 nM | 0.3 to 30 nM | 
COc1ncc(-c2nc(C)cc(-c3ccc(-n4ccn(C)c4=O)c(F)c3)c2O)cc1N1CCN(C(C)(C)C)CC1 [Example 997, 1-(4-(5′-(4-(tert-butyl)piperazin-1-yl)-3-hydroxy-6′-methoxy-6-methyl-[2,3′-bipyridin]-4-yl)-2-fluorophenyl)-3-methyl-1H-imidazol-2(3H)-one] | 1 to 10 nM | 0.3 to 30 nM | 
Cc1cc(-c2ccc(-n3ccn(C)c3=O)c(Cl)c2)c(O)c(-c2ccnc(N3CCN(C(C)(C)C)CC3)c2)n1 [Example 998, 1-(4-(2′-(4-(tert-butyl)piperazin-1-yl)-3-hydroxy-6-methyl-[2,4′-bipyridin]-4-yl)-2-chlorophenyl)-3-methyl-1H-imidazol-2(3H)-one] | 1 to 10 nM | 0.3 to 30 nM | 
Cc1cc(-c2ccc(-n3ccn(C)c3=O)c(Cl)c2)c(O)c(-c2cc(Cl)cc(N3CCN(C(C)(C)C)CC3)c2)n1 [Example 999, 1-(4-(2-(3-(4-(tert-butyl)piperazin-1-yl)-5-chlorophenyl)-3-hydroxy-6-methylpyridin-4-yl)-2-chlorophenyl)-3-methyl-1H-imidazol-2(3H)-one] | 1 to 10 nM | 0.3 to 30 nM | 

The remaining lines, values ahead:

IC50 [1] | GI50 [2, 3] | GI50 ([2]; SKM-1 antiproliferation assay) | SMILES
1 to 10 nM | 0.3 to 30 nM |  | Cc1cc(-c2ccc(-n3ccn(C)c3=O)c(Cl)c2)c(O)c(-c2ccc(F)c(N3CCN(C(C)(C)C)CC3)c2)n1 [Example 1000, 1-(4-(2-(3-(4-(tert-butyl)piperazin-1-yl)-4-fluorophenyl)-3-hydroxy-6-methylpyridin-4-yl)-2-chlorophenyl)-3-methyl-1H-imidazol-2(3H)-one]
1 to 10 nM | 0.3 to 30 nM |  | Cc1cc(-c2ccc(-n3ccn(C)c3=O)c(F)c2)c(O)c(-c2cnc(C)c(N3CCN(C(C)(C)C)CC3)c2)n1 [Example 1001, 1-(4-(5′-(4-(tert-butyl)piperazin-1-yl)-3-hydroxy-6,6′-dimethyl-[2,3′-bipyridin]-4-yl)-2-fluorophenyl)-3-methyl-1H-imidazol-2(3H)-one]
1 to 10 nM | 0.3 to 30 nM |  | Cc1cc(-c2ccc(-n3ccn(C)c3=O)c(Cl)c2)c(O)c(-c2cc(N3CCN(C(C)(C)C)CC3)n3ccnc3c2)n1 [Example 1002, 1-(4-(2-(5-(4-(tert-butyl)piperazin-1-yl)imidazo[1,2-a]pyridin-7-yl)-3-hydroxy-6-methylpyridin-4-yl)-2-chlorophenyl)-3-methyl-1H-imidazol-2(3H)-one]
1 to 10 nM | 0.3 to 30 nM |  | Cc1cc(-c2ccc(-n3ccn(C)c3=O)c(F)c2)c(O)c(-c2cccc(N3CCN(C(C)(C)C)CC3)c2)n1 [Example 1003, 1-(4-(2-(3-(4-(tert-butyl)piperazin-1-yl)phenyl)-3-hydroxy-6-methylpyridin-4-yl)-2-fluorophenyl)-3-methyl-1H-imidazol-2(3H)-one]
1 to 10 nM | 0.3 to 30 nM |  | Cc1cc(-c2ccc(-n3ccn(C)c3=O)c(Cl)c2)c(O)c(-c2cncc(N3CCN(C(C)(C)C)CC3)c2)n1 [Example 1004, 1-(4-(5′-(4-(tert-butyl)piperazin-1-yl)-3-hydroxy-6-methyl-[2,3′-bipyridin]-4-yl)-2-chlorophenyl)-3-methyl-1H-imidazol-2(3H)-one]
1 to 10 nM | 0.3 to 30 nM |  | COc1ncc(-c2nccc(-c3ccc(-n4ccn(C)c4=O)c(Cl)c3)c2O)cc1N1CCN(C(C)(C)C)CC1 [Example 1005, 1-(4-(5′-(4-(tert-butyl)piperazin-1-yl)-3-hydroxy-6′-methoxy-[2,3′-bipyridin]-4-yl)-2-chlorophenyl)-3-methyl-1H-imidazol-2(3H)-one]
1 to 10 nM | 0.3 to 30 nM |  | CC(=O)Nc1ccc(-c2cc(C)nc(-c3cccc(N4CCN(C(C)(C)C)CC4)c3)c2O)cc1Cl [Example 1007, N-(4-(2-(3-(4-(tert-butyl)piperazin-1-yl)phenyl)-3-hydroxy-6-methylpyridin-4-yl)-2-chlorophenyl)acetamide]
1 to 10 nM | 0.3 to 30 nM |  | [2H]C([2H])([2H])C(=O)Nc1ccc(-c2cc(C)nc(-c3cccc(N4CCN(C(C)(C)C)CC4)c3)c2O)cc1Cl [Example 1008, N-(4-(2-(3-(4-(tert-butyl)piperazin-1-yl)phenyl)-3-hydroxy-6-methylpyridin-4-yl)-2-chlorophenyl)-2,2,2-trideuteroacetamide]
1 to 10 nM | 0.3 to 30 nM |  | Cc1cc(-c2ccc(-n3ccn(C)c3=O)c(Cl)c2)c(O)c(-c2cc(N3CCN(C(C)(C)C)CC3)n(C)c(=O)c2)n1 [Example 1009, 6′-(4-(tert-butyl)piperazin-1-yl)-4-(3-chloro-4-(3-methyl-2-oxo-2,3-dihydro-1H-imidazol-1-yl)phenyl)-3-hydroxy-1′,6-dimethyl-[2,4′-bipyridin]-2′(1′H)-one]
0.01 to 1 nM | 0.3 to 30 nM |  | Cc1cc(-c2ccc(-n3ccn(C)c3=O)c(Cl)c2)c(O)c(-c2cc(Cl)c(F)c(N3CCN(C(C)(C)C)CC3)c2)n1 [Example 1010, 1-(4-(2-(3-(4-(tert-butyl)piperazin-1-yl)-5-chloro-4-fluorophenyl)-3-hydroxy-6-methylpyridin-4-yl)-2-chlorophenyl)-3-methyl-1H-imidazol-2(3H)-one]
10 to 100 nM | 0.3 to 30 nM |  | Cc1cc(-c2ccc(-n3ccn(C)c3=O)c(Cl)c2)c(O)c(-c2cc(N3CCN(C(C)(C)C)CC3)c(=O)n(C)c2)n1 [Example 1011, 5′-(4-(tert-butyl)piperazin-1-yl)-4-(3-chloro-4-(3-methyl-2-oxo-2,3-dihydro-1H-imidazol-1-yl)phenyl)-3-hydroxy-1′,6-dimethyl-[2,3′-bipyridin]-6′(1′H)-one]
